Experimental data published in patent US9732063B2, “Kinase inhibitors” (RESPIVERT LIMITED, priority 2012, dated 2017).

Tests used:
c-Src = c-Src (Homo sapiens (Human), UniProt P12931); assay: c-Src enzyme inhibition (Z-LYTE FRET); type: biochemical
Procedure: (§1) The enzyme inhibitory activities of compounds disclosed herein are determined by FRET using synthetic peptides labelled with both donor and acceptor fluorophores (Z-LYTE, Invitrogen Ltd., Paisley, UK).
(§2) The relevant enzyme (3000 ng/mL or 2000 ng/mL respectively, 2.5 μL) is incubated with the test compound (either 4 μg/mL, 0.4 μg/mL, 0.04 μg/mL, or 0.004 μg/mL, 2.5 μL each) for 2 hr at RT. The FRET peptides (8 μM, 2.5 μL), and appropriate ATP solutions (2.5 μL, 800 μM for c-Src, and 60 μM ATP for Syk) are then added to the enzymes/compound mixtures and incubated for 1 hr. Development reagent (protease, 5 μL) is added for 1 hr prior to detection in a fluorescence microplate reader (Varioskan® Flash, ThermoFisher Scientific).
(§3) In all cases, the site-specific protease cleaves non-phosphorylated peptide only and eliminates the FRET signal. Phosphorylation levels of each reaction are calculated using the ratio of coumarin emission (donor) over fluorescein emission (acceptor), for which high ratios indicate high phosphorylation and low ratios indicate low phosphorylation levels.

Syk = Syk (Homo sapiens (Human), UniProt P43405); assay: Syk enzyme inhibition (Z-LYTE FRET); type: biochemical
Procedure: as §1, §2, §3

PBMCs [1] = assay: LPS-induced TNFα/IL-8 release in PBMC cells; type: cell-based; conditions: Homo sapiens, read-out: IC50 Values for Inhibition of Cytokine Release PBMCs IL-8
Procedure: Peripheral blood mononuclear cells (PBMCs) from healthy subjects are separated from whole blood using a density gradient (Lymphoprep, Axis-Shield Healthcare). The PBMCs are seeded in 96 well plates and treated with compounds at the desired concentration for 2 hours before addition of 1 ng/mL LPS (Escherichia Coli O111:B4 from Sigma Aldrich) for 24 hours under normal tissue culture conditions (37° C., 5% CO2). The supernatant is harvested for determination of IL-8 and TN Fa concentrations by sandwich ELISA (Duo-set, R&D systems) and read on the fluorescence microplate reader (Varioskan® Flash, ThermoFisher Scientific).

GSK3α = GSK3α (Homo sapiens (Human), UniProt P49840); assay: GSK 3α enzyme inhibition (Z-LYTE FRET, Method 2); type: biochemical
Procedure: as §1
The inhibitory activities of compounds of the invention against the GSK 3α enzyme isoform (Invitrogen), are evaluated by determining the level of activation/phosphorylation of the target peptide. The GSK3-α protein (500 ng/mL, 2.5 μL) is mixed with the test compound (2.5 μL at either 4 μg/mL, 0.4 μg/mL, 0.04 μg/mL, or 0.004 μg/mL) for 2 hr at RT. The FRET peptide (8 μM, 2.5 μL), which is a phosphorylation target for GSK3α, and ATP (40 μM, 2.5 μL) are then added to the enzyme/compound mixture and the resulting mixture incubated for 1 hr. Development reagent (protease, 5 μL) is added for 1 hr prior to detection in a fluorescence microplate reader (Varioskan® Flash, ThermoFisher Scientific).
as §3

p38 MAPKα = p38 MAPKα (Homo sapiens (Human), UniProt Q16539); assay: p38 MAPKα enzyme inhibition (Z-LYTE FRET, Method 2); type: biochemical
Procedure: as §1
The inhibitory activities of test compounds against the p38 MAPKα isoform (MAPK14: Invitrogen), are evaluated indirectly by determining the level of activation/phosphorylation of the down-stream molecule, MAPKAP-K2. The p38 MAPKα protein (80 ng/mL, 2.5 μL) is mixed with the test compound (2.5 μL of either 4 μg/mL, 0.4 μg/mL, 0.04 μg/mL or 0.004 μg/mL) for 2 hr at RT. […] The mixture is incubated for 1 hr at RT. Development reagent (protease, 5 μL) is added for 1 hr prior to detection in a fluorescence microplate reader (Varioskan® Flash, ThermoFisher Scientific).
as §3

PBMCs [2] = assay: IL-2 and IFN gamma release in CD3/CD28 stimulated PBMC cells; type: cell-based; conditions: Homo sapiens
Procedure: PBMCs from healthy subjects are separated from whole blood using a density gradient (Lymphoprep, Axis-Shield Healthcare). Cells are added to a 96 well plate pre-coated with a mixture of CD3/CD38 monoclonal antibodies (0.3 μg/mL eBioscience and 3 μg/mL BD Pharmingen respectively). Compound at the desired concentration is then added to the wells and the plate left for 3 days under normal tissue culture conditions. Supernatants are harvested and IL-2 and IFN gamma release determined by Sandwich ELISA (Duo-set, R&D System). The IC50 is determined from the dose response curve.

[3] = read-out: IC50 Values for Inhibition of Cytokine Release PBMCs IL-2
[4] = read-out: IC50 Values for Inhibition of Cytokine Release PBMCs IFNγ

Sequence of p38 MAPKα (Q16539 whole entry): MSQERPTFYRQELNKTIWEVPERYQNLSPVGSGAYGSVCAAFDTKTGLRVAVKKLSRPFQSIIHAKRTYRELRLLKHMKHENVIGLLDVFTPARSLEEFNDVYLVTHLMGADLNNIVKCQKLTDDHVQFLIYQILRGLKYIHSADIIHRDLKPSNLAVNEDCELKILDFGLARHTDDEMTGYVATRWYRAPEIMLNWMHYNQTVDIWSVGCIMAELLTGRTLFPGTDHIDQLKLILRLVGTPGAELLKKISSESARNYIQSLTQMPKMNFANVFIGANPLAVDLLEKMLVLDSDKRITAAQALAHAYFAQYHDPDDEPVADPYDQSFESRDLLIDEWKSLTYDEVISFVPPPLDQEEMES
Sequence of GSK3α (P49840 whole entry): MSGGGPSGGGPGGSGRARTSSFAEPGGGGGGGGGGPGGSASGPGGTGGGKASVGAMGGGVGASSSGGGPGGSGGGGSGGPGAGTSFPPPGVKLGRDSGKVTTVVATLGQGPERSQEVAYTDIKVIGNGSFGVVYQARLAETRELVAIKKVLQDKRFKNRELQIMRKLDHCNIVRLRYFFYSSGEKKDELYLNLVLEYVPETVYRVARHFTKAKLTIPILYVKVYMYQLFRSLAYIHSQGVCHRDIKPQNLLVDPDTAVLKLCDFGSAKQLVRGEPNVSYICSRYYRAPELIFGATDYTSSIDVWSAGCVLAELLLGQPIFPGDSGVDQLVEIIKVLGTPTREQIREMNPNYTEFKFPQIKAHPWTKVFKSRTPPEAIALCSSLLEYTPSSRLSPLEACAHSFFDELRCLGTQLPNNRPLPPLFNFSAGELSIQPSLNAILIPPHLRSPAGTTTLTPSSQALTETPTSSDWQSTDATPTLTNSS
Sequence of c-Src (P12931 whole entry, looked up): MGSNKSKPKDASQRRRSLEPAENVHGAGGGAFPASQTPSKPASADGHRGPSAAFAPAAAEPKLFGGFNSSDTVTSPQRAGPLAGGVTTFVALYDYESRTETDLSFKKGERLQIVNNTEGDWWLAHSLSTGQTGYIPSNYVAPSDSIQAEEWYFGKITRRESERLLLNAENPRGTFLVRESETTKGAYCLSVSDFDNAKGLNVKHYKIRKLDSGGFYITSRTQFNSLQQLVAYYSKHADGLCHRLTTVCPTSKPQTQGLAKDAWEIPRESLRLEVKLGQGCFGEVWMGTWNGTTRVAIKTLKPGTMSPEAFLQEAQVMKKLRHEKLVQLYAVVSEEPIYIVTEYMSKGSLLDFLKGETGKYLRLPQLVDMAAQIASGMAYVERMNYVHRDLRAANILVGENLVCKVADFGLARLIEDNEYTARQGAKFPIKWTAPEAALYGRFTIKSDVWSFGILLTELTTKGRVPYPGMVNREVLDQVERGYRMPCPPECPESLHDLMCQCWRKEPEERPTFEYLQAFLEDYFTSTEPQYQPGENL

Compound	IC50 (c-Src)	IC50 (Syk)	IC50 (PBMCs [1])	IC50 (GSK3α)	IC50 (p38 MAPKα)	IC50 (PBMCs [2]; [3])	IC50 (PBMCs [2]; [4])
C#Cc1cccc(Nc2nccc(Oc3ccc(NC(=O)Nc4cc(C(C)C)nn4-c4ccc(C)cc4)c4ccccc34)n2)c1 [Example 10, 1-(4-((2-((3-Ethynylphenyl)amino)pyrimidin-4-yl)oxy)naphthalen-1-yl)-3-(3-isopropyl-1-(p-tolyl)-1H-pyrazol-5-yl)urea]	0.137 µM	0.807 µM	0.0079 µM				
C#Cc1cc(Nc2nccc(Oc3ccc(NC(=O)Nc4cc(C(C)C)nn4-c4ccc(C)cc4)c4ccccc34)n2)cc(OC)c1 [Example 15, 1-(4-((2-((3-Ethynyl-5-methoxyphenyl)amino)pyrimidin-4-yl)oxy)naphthalen-1-yl)-3-(3-isopropyl-1-(p-tolyl)-1H-pyrazol-5-yl)urea]	> 1.6 µM	> 1.6 µM	0.0061 µM				
Cc1ccc(-n2nc(C(C)C)cc2NC(=O)Nc2ccc(Oc3ccnc(Nc4cccc(OCCOCCOCCO)c4)n3)c3ccccc23)cc1 [Example 19, 1-(4-((2-((3-(2-(2-(2-Hydroxyethoxy)ethoxy)ethoxy)phenyl)amino)pyrimidin-4-yl)oxy)-naphthalen-1-yl)-3-(3-isopropyl-1-(p-tolyl)-1H-pyrazol-5-yl)urea]	0.005 µM	0.02 µM	0.0012 µM	1.07 µM			
COCCOCCOCCOc1cc(Nc2nccc(Oc3ccc(NC(=O)Nc4cc(C(C)C)nn4-c4ccc(C)cc4)c(Cl)c3Cl)n2)cc(OC)c1 [Example 35, 1-(2,3-Dichloro-4-((2-((3-methoxy-5-(2-(2-(2-methoxyethoxy)ethoxy)ethoxy)phenyl)-amino)pyrimidin-4-yl)oxy)phenyl)-3-(3-isopropyl-1-(p-tolyl)-1H-pyrazol-5-yl)urea]	0.015 µM		0.0021 µM	> 10 µM	0.487 µM	0.0098 µM	
COCCOCCOCCOc1cc(Nc2nccc(Oc3ccc(NC(=O)Nc4cc(C(F)(F)C(F)(F)F)nn4-c4ccc(C)cc4)c4ccccc34)n2)cc(OC)c1 [Example 39, 1-(4-((2-((3-Methoxy-5-(2-(2-(2-methoxyethoxyl)ethoxy)ethoxy)phenyl)amino)pyrimidin-4-yl)oxy)naphthalen-1-yl)-3-(3-(perfluoroethyl)-1-(p-tolyl)-1H-pyrazol-5-yl)urea]			0.0055 µM	9.54 µM	0.433 µM		
COCCOCCOCCOc1cc(Nc2nccc(Oc3ccc(NC(=O)Nc4cc(C(C)(C)C(F)(F)F)nn4-c4ccc(C)cc4)c4ccccc34)n2)cc(OC)c1 [Example 40, 1-(4-((2-((3-Methoxy-5-(2-(2-(2-methoxyethoxyl)ethoxy)ethoxy)phenyl)amino)pyrimidin-4-yl)oxy)naphthalen-1-yl)-3-(1-(p-tolyl)-3-(1,1,1-trifluoro-2-methylpropan-2-yl)-1H-pyrazol-5-yl)urea]			0.0072 µM	8.17 µM		0.175 µM	0.001 µM
COc1cc(Nc2nccc(Oc3ccc(NC(=O)Nc4cc(C(C)(C)C)nn4-c4ccc(C)cc4)c4ccccc34)n2)cc(SCCN2CCOCC2)c1 [Example 41, 1-(3-(tert-Butyl)-1-(p-tolyl)-1H-pyrazol-5-yl)-3-(4-((2-((3-methoxy-5-((2-morpholinoethyl)-thio)phenyl)amino)pyrimidin-4-yl)oxy)naphthalen-1-yl)urea]			0.0048 µM	2.82 µM	0.224 µM	0.0803 µM	0.0025 µM
COc1cc(Nc2nccc(Oc3ccc(NC(=O)Nc4cc(C(C)(C)C)nn4-c4ccc(C)cc4)c4ccccc34)n2)cc(S(=O)(=O)CCCN2CCOCC2)c1 [Example 43, 1-(3-(tert-Butyl)-1-(p-tolyl)-1H-pyrazol-5-yl)-3-(4-((2-((3-methoxy-5-((3-morpholinopropyl)-sulfonyl)phenyl)amino)pyrimidin-4-yl)oxy)naphthalen-1-yl)urea]			0.0029 µM	0.531 µM		0.0787 µM	0.0022 µM
COc1cc(Nc2nccc(Oc3ccc(NC(=O)Nc4cc(C(C)(C)C)nn4-c4ccc(C)cc4)c4ccccc34)n2)cc(SCCCO)c1 [Example 48, 1-(3-(tert-Butyl)-1-(p-tolyl)-1H-pyrazol-5-yl)-3-(4-((2-((3-((3-Hydroxypropyl)thio)-5-methoxyphenyl)amino)pyrimidin-4-yl)oxy)naphthalen-1-yl)urea]		0.037 µM	0.003 µM	2.05 µM	0.195 µM	0.0492 µM	
COCCOCCOCCOc1cc(C#N)cc(Nc2nccc(Oc3ccc(NC(=O)Nc4cc(C(C)(C)C)nn4-c4ccc(C)cc4)c4ccccc34)n2)c1 [Example 52, 1-(3-(tert-Butyl)-1-(P-tolyl)-1H-pyrazol-5-yl)-3-(4-((2-((3-cyano-5-(2-(2-(2-methoxyethoxy)-ethoxy)ethoxy)phenyl)amino)pyrimidin-4-yl)oxy)naphthalen-1-yl)urea]			0.015 µM	> 13 µM			
C#Cc1cc(Nc2nccc(Oc3ccc(NC(=O)Nc4cc(C(C)(C)C)nn4-c4ccc(C)cc4)c4ccccc34)n2)cc(OCCOCCOCCOC)c1 [Example 54, 1-(3-(tert-Butyl)-1-(p-tolyl)-1H-pyrazol-5-yl)-3-(4-((2-((3-ethynyl-5-(2-(2-(2-methoxyethoxy)ethoxy)ethoxy)phenyl)amino)pyrimidin-4-yl)oxy)naphthalen-1-yl)urea]			0.0045 µM	> 10 µM			
COCCOCCOCCOc1cc(Cl)cc(Nc2nccc(Oc3ccc(NC(=O)Nc4cc(C(C)(C)C)nn4-c4ccc(C)cc4)c4ccccc34)n2)c1 [Example 64, 1-(3-(tert-Butyl)-1-(p-tolyl)-1H-pyrazol-5-yl)-3-(4-((2-((3-chloro-5-(2-(2-(2-methoxyethoxy)-ethoxy)ethoxy)phenyl)amino)pyrimidin-4-yl)oxy)naphthalen-1-yl)urea]			0.0095 µM	> 10 µM			
COc1cc(Nc2nccc(Oc3ccc(NC(=O)Nc4cc(C(C)(C)C)nn4-c4ccc(C)cc4)c(Cl)c3Cl)n2)cc(OCCCN2CCOCC2)c1 [Example 65, 1-(3-(tert-Butyl)-1-(p-tolyl)-1H-pyrazol-5-yl)-3-(2,3-dichloro-4-((2-((3-methoxy-5-(3-morpholinopropoxyl)phenyl)amino)pyrimidin-4-yl)oxy)phenyl)urea]			0.0035 µM	> 10 µM		0.037 µM	0.0028 µM
COCCOCCOCCOc1cc(Nc2nccc(Oc3ccc(NC(=O)Nc4cc(C(C)(C)C)nn4-c4ccc(C)cc4)c4ccccc34)n2)cc(N(C)C)c1 [Example 66, 1-(3-(tert-Butyl)-1-(p-tolyl)-1H-pyrazol-5-yl)-3-(4-((2-((3-(dimethylamino)-5-(2-(2-(2-methoxyethoxy)ethoxy)ethoxy)phenyl)amino)pyrimidin-4-yl)oxy)naphthalen-1-yl)urea]			0.0026 µM	3.39 µM			
COCCOCCOCCOc1cc(Nc2nccc(Oc3ccc(NC(=O)Nc4cc(C(C)(C)C)nn4-c4ccc(C)cc4)c4ccccc34)n2)cc(OC)c1Cl [Example 72, 1-(3-(tert-Butyl)-1-(p-tolyl)-1H-pyrazol-5-yl)-3-(4-((2-((4-chloro-3-methoxy-5-(2-(2-(2-methoxyethoxyl)ethoxy)ethoxy)phenyl)amino)pyrimidin-4-yl)oxy)naphthalen-1-yl)urea]		0.075 µM		> 10 µM	0.377 µM	0.0351 µM	0.0033 µM
